From patent publication US10188634B2, “3-(3H-imidazo[4,5-C]pyridin-2-yl)-1 H-pyrazolo[4,3-B]pyridines and therapeutic uses thereof” (Samumed, LLC, priority 2015, dated 2019)

Tests used:
Format in all cases: cell-based
[1] = tested on: Wnt activity (Sp5-Luc reporter, human Sp5 promoter with eight TCF/LEF binding sites) in SW480 colon carcinoma cells; test: Screening assay for Wnt activity: Sp5-Luc reporter gene assay in SW480 cells; settings: 10-point dose-response starting from 10 μM, overnight incubation
Excerpt: The screening assay for Wnt activity is described as follows. Reporter cell lines can be generated by stably transducing cancer cell lines (e.g., colon cancer) or primary cells (e.g., IEC-6 intestinal cells) with a lentiviral construct that includes a Wnt-responsive promoter driving expression of the firefly luciferase gene.
SW480 colon carcinoma cells were transduced with a lentiviral vector expressing luciferase with a human Sp5 promoter consisting of a sequence of eight TCF/LEF binding sites. SW480 cells stably expressing the Sp5-Luc reporter gene and a hygromycin resistance gene were selected by treatment with 150 μg/mL of hygromycin for 7 days. These stably transduced SW480 cells were expanded in cell culture and used for all further screening activities. Each compound was dissolved in DMSO as a 10 mM stock and used to prepare compound source plates. Serial dilution (1:3, 10-point dose-response curves starting from 10 μM) and compound transfer was performed using the ECHO 550 (Labcyte, Sunnyvale, Calif.) into 384-well white solid bottom assay plates (Greiner Bio-One) with appropriate DMSO backfill for a final DMSO concentration of 0.1%. For Sp5-Luc reporter gene assays, the cells were plated at 4,000 cells/well in 384-well plates with medium containing 1% fetal bovine serum and incubated overnight at 37° C. and 5% CO2. Following incubation, 20 μl of BrightGlo luminescence reagent (Promega) was added to each well of the 384-well assay plates. The plates were placed on an orbital shaker for 2 min and then luminescence was quantified using the Envision (Perkin Elmer) plate reader. Readings were normalized to DMSO only treated cells, and normalized activities were utilized for EC50 calculations using the dose-response log (inhibitor) vs. response -variable slope (four parameters) nonlinear regression feature available in GraphPad Prism 5.0 (or Dotmatics). For EC50 of >10 μM, the percent inhibition at 10 μM is provided.

[2] = tested on: SW480 colon cancer cells; test: Cell viability assay (CellTiter-Blue) in SW480 colon cancer cells; settings: Homo sapiens, 96 h; for EC50: four days incubation, CellTiter-Blue cell viability
Experimental: Representative compounds were screened using the following assay procedure to assess the effect on cell viability as described below.
Each compound was dissolved in DMSO as a 10 mM stock and used to prepare compound source plates. Serial dilution (1:3, 8-point dose-response curves from 10 μM to 0.004 μM) and compound transfer was performed using the ECHO 550 (Labcyte, Sunnyvale, Calif.) into 96-well clear bottom, black-walled plates (Corning-Costar).
Approximately 2×10^3 SW480 colon cancer cells were seeded into each well and allowed to incubate in the presence or absence of compound for four days at 37° C./5% CO2. Eight replicates of DMSO-treated cells served as controls and cells treated with compound were performed in duplicate.
After incubation, 20 μL of CellTiter-Blue (Promega) was added to each well allowed to incubate for approximately 3 hours. This reagent was a buffered solution which contains resazurin, metabolically active cells were able to reduce rezarurin (blue) into resorufin (pink) which was highly fluorescent. This measured fluorescence was used as a readout for cell viability.
After incubation, the plates were read at Ex 560 nm Em 590 nm (Cytation 3, BioTek). Dose-response curves were generated and EC50 concentration values were calculated using non-linear regression curve fit in the GraphPad Prism (San Diego, Calif.) or Dotmatics' Studies Software (Bishops Stortford, UK). For EC50 of >10 μM, the percent inhibition at 10 μM is provided.

[3] = tested on: LL29 cells (primary human fibroblasts derived from IPF patients) treated with TGF-β1, α-smooth muscle actin; test: Inhibition of the fibrotic process: αSMA staining in TGF-β1 treated primary human fibroblasts from IPF patients (LL29 cells); settings: Fibroblast, 96 h, LL29 cells treated with TGF-β1 (20 ng/mL), 4 days
Excerpt: Representative compounds were screened using primary human fibroblasts (derived from IPF patients) treated with TGF-β1 to determine their ability to inhibit the fibrotic process.
Human Fibroblast Cell Culture: Primary human fibroblasts derived from IPF patients (LL29 cells) [^1Xiaoqiu Liu, et.al., “Fibrotic Lung Fibroblasts Show Blunted Inhibition by cAMP Due to Deficient cAMP Response Element-Binding Protein Phosphorylation”, Journal of Pharmacology and Experimental Therapeutics (2005), 315(2), 678-687; ^2Watts, K. L., et.al., “RhoA signaling modulates cyclin D1 expression in human lung fibroblasts; implications for idiopathic pulmonary fibrosis”, Respiratory Research (2006), 7(1), 88] were obtained from American Type Culture Collection (ATCC) and expanded in F12 medium supplemented with 15% Fetal Bovine Serum and Penicillin/Streptomycin.
Compound Screening: Each compound was dissolved in DMSO as a 10 mM stock and used to prepare compound source plates. […] LL29 cells are plated at 1,500 cells/well in 80 μL/well F12 medium supplemented with 1% Fetal Bovine Serum. One hour after addition of the cells, TGF-β1 (Peprotech; 20 ng/mL) was added to the plates to induce fibrosis (ref. 1 and 2 above). Wells treated with TGF-β1 and containing DMSO were used as controls. Cells were incubated at 37° C. and 5% CO2 for 4 days. Following incubation for 4 days, SYTOX green nucleic acid stain (Life Technologies [Thermo Fisher Scientific]) was added to the wells at a final concentration of 1 μM and incubated at room temperature for 30 min. Cells were then fixed using 4% formaldehyde (Electron Microscopy Sciences), washed 3 times with PBS followed by blocking and permeabilization using 3% Bovine Serum Albumin (BSA; Sigma) and 0.3% Triton X-100 (Sigma) in PBS. Cells were then stained with antibody specific to α-smooth muscle actin (αSMA; Abcam) (ref. 1 and 2 above) in 3% Bovine Serum Albumin (BSA; Sigma) and 0.3% Triton X-100 (Sigma) in PBS, and incubated overnight at 4° C. Cells were then washed 3 times with PBS, followed by incubation with Alexa Flor-647 conjugated secondary antibody (Life Technologies [Thermo Fisher Scientific]) and DAPI at room temperature for 1 hour. Cells were then washed 3 times with PBS and plates were sealed for imaging. αSMA staining was imaged by excitation at 630 nm and emission at 665 nm and quantified using the Compartmental Analysis program on the CellInsight CX5 (Thermo Scientific). Dead or apoptotic cells were excluded from analysis based on positive SYTOX green staining. % of total cells positive for αSMA were counted in each well and normalized to the average of 11 wells treated with TGF-β1 on the same plate using Dotmatics' Studies Software. The normalized averages (fold change over untreated) of 3 replicate wells for each compound concentration were used to create dose-responses curves and EC50 values were calculated using non-linear regression curve fit in the Dotmatics' Studies Software. For EC50 of >10 μM, the percent inhibition at 10 μM is provided.

[4] = tested on: IL-6 in THP-1 cells; test: Inhibition of IL-6 in LPS-stimulated THP-1 human monocyte cells (HTRF); settings: IL-6 HTRF; for EC50: 500 ng/mL LPS, 22 hours
Experimental: Human Monocyte Cell Culture: Human monocyte cell line (THP-1 cells; Catalog # TIB-202, ATCC, Manassas, Va.) were cultured in Roswell Park Memorial Institute (RPMI) 1640 Medium (Catalog #21870-100, Buffalo, N.Y.) with 1% L-glutamine, 1% HEPES, 1% Sodium Pyruvate, 2% Sodium Bicarbonate supplemented with 100 units/mL penicillin, 50 μg/mL streptomycin, 2-mercaptoethanol (0.05 mM) [basal medium] and 10% fetal bovine serum (Catalog #16140089, Life Technologies, Carlsbad, Calif.) at 37° C. and 5% CO2.
Compound Screening: THP-1 cells were cultured in basal media with 1% FBS for 24 hours before the start of the assay. Each compound was dissolved in DMSO as a 10 mM stock and used to prepare compound source plates. Serial dilution (1:3, 10-point dose-response curves starting from 10 μM) and compound transfer was performed using the ECHO 550 (Labcyte, Sunnyvale, Calif.) into 384-well white low volume assay plates (Greiner Bio-One) with appropriate DMSO backfill for a final DMSO concentration of 0.1%. THP-1 cells were plated at 5000 cells/well in the 384-well plates and incubated at 37° C. for 2 h. 500 ng/mL of LPS was added after 2 hours and cells were incubated for another 22 hours at 37° C. Plates were spun in a centrifuge for 1 minute at […] and a mixture of anti-IL6 XL665, and anti-IL6 Cryptate diluted in reconstitution buffer (Cisbio Inc.) was added to each well. Following incubation for 3 hrs at room temperature, Homogeneous Time-Resolved Fluorescence (HTRF) was measured using the Envision (Perkin Elmer) at 665 nm and […]. The ratio of fluorescence at 665 nm to 620 nm was used as a readout for IL6 quantification. All samples were processed in duplicate. Readings were normalized to DMSO treated cells and normalized activities were utilized for EC50 calculations using the dose-response log (inhibitor) vs. response -variable slope (four parameters) nonlinear regression feature available in GraphPad Prism 5.0 (or Dotmatics). For EC50 of >10 μM, the percent inhibition at 10 μM is provided.

| Compound | EC50 [1] | EC50 [2] | EC50 [4] | EC50 [3] | inhibition at 10 µM ([4]; LPS, at 10 μM, read-out: percent inhibition in brackets (given for EC50 >10 μM)) | inhibition at 10 µM ([2]; 10 μM, four days, CellTiter-Blue, read-out: percent inhibition at 10 μM (given for EC50 of >10 μM)) |
| --- | --- | --- | --- | --- | --- | --- |
| CN(C)CCNc1cc(F)cc(-c2cncc3[nH]c(-c4n[nH]c5ccc(-c6cncc(CNCC7CCCC7)c6)nc45)nc23)c1 [Compound 445, N^1-(3-(2-(5-(5-(((Cyclopentylmethyl)amino)methyl)pyridin-3-yl)-1H-pyrazolo[4,3-b]pyridin-3-yl)-3H-imidazo[4,5-c]pyridin-7-yl)-5-fluorophenyl)-N^2,N^2-dimethylethane-1,2-diamine] | 9280 nM | 8.71 µM | > 10 µM | 4020 nM | 45.8% |  |
| CN1CCN(c2cncc3[nH]c(-c4n[nH]c5ccc(-c6cncc(OCc7ccccc7)c6)nc45)nc23)CC1 [Compound 618, 5-(5-(Benzyloxy)pyridin-3-yl)-3-(7-(4-methylpiperazin-1-yl)-3H-imidazo[4,5-c]pyridin-2-yl)-1H-pyrazolo[4,3-b]pyridine] | 4630 nM | 4.6 µM | 1.6 µM | 1900 nM |  |  |
| c1cc(-c2cncc3[nH]c(-c4n[nH]c5ccc(-c6cncc(OCCN7CCCC7)c6)nc45)nc23)co1 [Compound 646, 3-(7-(Furan-3-yl)-3H-imidazo[4,5-c]pyridin-2-yl)-5-(5-(2-(pyrrolidin-1-yl)ethoxy)pyridin-3-yl)-1H-pyrazolo[4,3-b]pyridine] | 4620 nM | > 10 µM | 0.435 µM | 3840 nM |  | 33.1% |

The next compounds have a lower EC50 [1] than those just listed; values first:

| EC50 [1] | EC50 [2] | EC50 [4] | Compound | EC50 [3] | inhibition at 10 µM ([4]; LPS, at 10 μM, read-out: percent inhibition in brackets (given for EC50 >10 μM)) | inhibition at 10 µM ([2]; 10 μM, four days, CellTiter-Blue, read-out: percent inhibition at 10 μM (given for EC50 of >10 μM)) |
| --- | --- | --- | --- | --- | --- | --- |
| 1260 nM | 1.39 µM | 3.53 µM | Fc1ccccc1-c1cncc2[nH]c(-c3n[nH]c4ccc(-c5cncc(CNCC6CCCC6)c5)nc34)nc12 [Compound 81, 1-Cyclopentyl-N-((5-(3-(7-(2-fluorophenyl)-3H-imidazo[4,5-c]pyridin-2-yl)-1H-pyrazolo[4,3-b]pyridin-5-yl)pyridin-3-yl)methyl)methanamine] | 1940 nM |  |  |
| 2330 nM | 3.59 µM | 6.55 µM | FC1(F)CCN(Cc2cncc(-c3ccc4[nH]nc(-c5nc6c(N7CCCCC7)cncc6[nH]5)c4n3)c2)C1 [Compound 194, 5-(5-((3,3-Difluoropyrrolidin-1-yl)methyl)pyridin-3-yl)-3-(7-(piperidin-1-yl)-3H-imidazo[4,5-c]pyridin-2-yl)-1H-pyrazolo[4,3-b]pyridine] | 2710 nM |  |  |
| 2720 nM | 3.3 µM | 1.6 µM | CN(C)CCNc1cc(F)cc(-c2cncc3[nH]c(-c4n[nH]c5ccc(-c6cncc(OCc7ccccc7)c6)nc45)nc23)c1 [Compound 746, N^1-(3-(2-(5-(5-(Benzyloxy)pyridin-3-yl)-1H-pyrazolo[4,3-b]pyridin-3-yl)-3H-imidazo[4,5-c]pyridin-7-yl)-5-fluorophenyl)-N^2,N^2-dimethylethane-1,2-diamine] | 2930 nM |  |  |
| 849 nM | 1.77 µM | 7.04 µM | COc1cncc(-c2ccc3[nH]nc(-c4nc5c(-c6ccoc6)cncc5[nH]4)c3n2)c1 [Compound 648, 3-(7-(Furan-3-yl)-3H-imidazo[4,5-c]pyridin-2-yl)-5-(5-methoxylpyridin-3-yl)-1H-pyrazolo[4,3-b]pyridine] | 404 nM |  |  |
